Test results as given in PubChem BioAssay AID1919001 (Molecular Pharmacology Branch, DTP, NCI, 2023).
Where “and” joins values, the source holds several entries; their conditions need not be identical. Equal values may be shown once.

Tested on: 699152-130-R-J1-PDC complex spheroid growth
Test: Anticancer human tumor 699152-130-R-J1-PDC patient-derived pancreatic carcinoma cell line growth inhibition [AhR]
Conditions: for viability, T/C: stronger effect = lower value
Outline: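 Spheroids combined tumor cells with HUVEC endothelial cells and human MSCs as stroma. AhR antagonists were paired with standard or investigational drugs, each dosed in half-log steps down from near clinical Cmax, or from 10 microM where Cmax was unknown.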

[1] = curve of first compound, second compound 0.1 µM
[2] = curve of first compound, second compound 0.316 µM
[3] = curve of first compound, second compound 1 µM
[4] = curve of first compound, second compound 3.16 µM
[5] = curve of first compound, second compound 10 µM
[6] = second compound 0.1 µM, first compound 0.00949 µM
[7] = second compound 0.1 µM, first compound 0.03 µM
[8] = second compound 0.1 µM, first compound 0.0949 µM
[9] = second compound 0.1 µM, first compound 0.3 µM
[10] = second compound 0.316 µM, first compound 0.00949 µM
[11] = second compound 0.316 µM, first compound 0.03 µM
[12] = second compound 0.316 µM, first compound 0.0949 µM
[13] = second compound 0.316 µM, first compound 0.3 µM
[14] = second compound 1 µM, first compound 0.00949 µM
[15] = second compound 1 µM, first compound 0.03 µM
[16] = second compound 1 µM, first compound 0.0949 µM
[17] = second compound 1 µM, first compound 0.3 µM
[18] = second compound 3.16 µM, first compound 0.00949 µM
[19] = second compound 3.16 µM, first compound 0.03 µM
[20] = second compound 3.16 µM, first compound 0.0949 µM
[21] = second compound 3.16 µM, first compound 0.3 µM
[22] = second compound 10 µM, first compound 0.00949 µM
[23] = second compound 10 µM, first compound 0.03 µM
[24] = second compound 10 µM, first compound 0.0949 µM
[25] = second compound 10 µM, first compound 0.3 µM
[26] = second compound 0.1 µM, first compound 0.0316 µM
[27] = second compound 0.1 µM, first compound 0.1 µM
[28] = second compound 0.1 µM, first compound 0.316 µM
[29] = second compound 0.1 µM, first compound 1 µM
[30] = second compound 0.1 µM, first compound 3.16 µM
[31] = second compound 0.1 µM, first compound 10 µM
[32] = second compound 0.316 µM, first compound 0.0316 µM
[33] = second compound 0.316 µM, first compound 0.1 µM
[34] = second compound 0.316 µM, first compound 0.316 µM
[35] = second compound 0.316 µM, first compound 1 µM
[36] = second compound 0.316 µM, first compound 3.16 µM
[37] = second compound 0.316 µM, first compound 10 µM
[38] = second compound 1 µM, first compound 0.0316 µM
[39] = second compound 1 µM, first compound 0.1 µM
[40] = second compound 1 µM, first compound 0.316 µM
[41] = second compound 1 µM, first compound 1 µM
[42] = second compound 1 µM, first compound 3.16 µM
[43] = second compound 1 µM, first compound 10 µM
[44] = second compound 3.16 µM, first compound 0.0316 µM
[45] = second compound 3.16 µM, first compound 0.1 µM
[46] = second compound 3.16 µM, first compound 0.316 µM
[47] = second compound 3.16 µM, first compound 1 µM
[48] = second compound 3.16 µM, first compound 3.16 µM
[49] = second compound 3.16 µM, first compound 10 µM
[50] = second compound 10 µM, first compound 0.0316 µM
[51] = second compound 10 µM, first compound 0.1 µM
[52] = second compound 10 µM, first compound 0.316 µM
[53] = second compound 10 µM, first compound 1 µM
[54] = second compound 10 µM, first compound 3.16 µM
[55] = second compound 10 µM, first compound 10 µM
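Note: compound exposure lasted 7 days after spheroids had grown for 3 days.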

With O=C(C=Cn1cnc(-c2cc(C(F)(F)F)cc(C(F)(F)F)c2)n1)NNc1cnccn1 + CC(CO)NC(=O)c1cc(-c2ccc(Cl)cc2)nn(-c2cnn(C)c2)c1=O the IC50 [1] was > 3 µM, the IC50 [2] was > 3 µM and the IC50 [3] was > 3 µM. For the same molecule, the IC50 [4] was > 3 µM, the IC50 [5] was > 3 µM and the viability, T/C [6] was 87.8%. The viability, T/C [7] was 98.4%, the viability, T/C [8] was 82.1% and the viability, T/C [9] was 74.3%. It also gave a viability, T/C (second compound 0.1 µM, first compound 0.949 µM) of 82.5%, a viability, T/C (second compound 0.1 µM, first compound 3 µM) of 83.2% and a viability, T/C [10] of 90.2%. It also gave a viability, T/C [11] of 82.5%, a viability, T/C [12] of 76.7% and a viability, T/C [13] of 87.3%. It also gave a viability, T/C (second compound 0.316 µM, first compound 0.949 µM) of 87.5%, a viability, T/C (second compound 0.316 µM, first compound 3 µM) of 70.5% and a viability, T/C [14] of 88.8%. The viability, T/C [15] was 83.9%, the viability, T/C [16] was 75.5% and the viability, T/C [17] was 74%. The viability, T/C (second compound 1 µM, first compound 0.949 µM) was 82.6%, the viability, T/C (second compound 1 µM, first compound 3 µM) was 79% and the viability, T/C [18] was 92.1%. For the same molecule, the viability, T/C [19] was 88%, the viability, T/C [20] was 87% and the viability, T/C [21] was 71.8%. The viability, T/C (second compound 3.16 µM, first compound 0.949 µM) was 71.2%, the viability, T/C (second compound 3.16 µM, first compound 3 µM) was 75.4% and the viability, T/C [22] was 99%. It also gave a viability, T/C [23] of 82.1%, a viability, T/C [24] of 68.7% and a viability, T/C [25] of 72.4%. It also gave a viability, T/C (second compound 10 µM, first compound 0.949 µM) of 82.3% and a viability, T/C (second compound 10 µM, first compound 3 µM) of 73.4%.
CC(C)CC(NC(=O)C(Cc1ccccc1)NC(=O)c1cnccn1)B(O)O (stereo unspecified) was tested, and the viability, T/C (compound 0.000949 µM) was 107% and 97.5% and 95.3%, the viability, T/C (compound 0.003 µM) was 107% and 101% and 94.5% and the viability, T/C (compound 0.00949 µM) was 99.3% and 79% and 30.8%. The viability, T/C (compound 0.03 µM) was 1.12% and 0.95% and 0.7%, the viability, T/C (compound 0.0949 µM) was 0.51% and 0.48% and 0.69% and the viability, T/C (compound 0.3 µM) was 0.46% and 0.87% and 0.49%. For the same molecule, the IC50 (curve of compound) was 0.0169 µM and 0.0145 µM and 0.0067 µM.
Work on COc1ccc([C@@H](O)c2cc(-c3ncnc4cc(N5CCOCC5)ccc34)c(F)cc2Cl)nn1 + Cc1cncc(-c2nc(NCCc3c[nH]c4ccccc34)c3ncn(C(C)C)c3n2)c1 yielded an IC50 [1] of 6.29 µM, an IC50 [2] of 5.2 µM and an IC50 [3] of 7.45 µM. The IC50 [4] was 4.64 µM, the IC50 [5] was < 0.0316 µM and the viability, T/C [26] was 100%. For the same molecule, the viability, T/C [27] was 104%, the viability, T/C [28] was 89.4% and the viability, T/C [29] was 78.9%. The viability, T/C [30] was 65.4%, the viability, T/C [31] was 40.1% and the viability, T/C [32] was 95%. For the same molecule, the viability, T/C [33] was 102%, the viability, T/C [34] was 89.2% and the viability, T/C [35] was 84.4%. It also gave a viability, T/C [36] of 59.7%, a viability, T/C [37] of 36.8% and a viability, T/C [38] of 104%. It also gave a viability, T/C [39] of 103%, a viability, T/C [40] of 109% and a viability, T/C [41] of 91%. The viability, T/C [42] was 76.2%, the viability, T/C [43] was 41.2% and the viability, T/C [44] was 55.6%. For the same molecule, the viability, T/C [45] was 66%, the viability, T/C [46] was 60.6% and the viability, T/C [47] was 59.8%. For the same molecule, the viability, T/C [48] was 54.3%, the viability, T/C [49] was 40.2% and the viability, T/C [50] was 4.98%. For the same molecule, the viability, T/C [51] was 5.41%, the viability, T/C [52] was 4.5% and the viability, T/C [53] was 6.28%. The viability, T/C [54] was 6.8% and the viability, T/C [55] was 9.11%.
CC1(C)CCC(CN2CCN(c3ccc(C(=O)NS(=O)(=O)c4ccc(NCC5CCOCC5)c([N+](=O)[O-])c4)c(Oc4cnc5[nH]ccc5c4)c3)CC2)=C(c2ccc(Cl)cc2)C1 was tested, and the viability, T/C (compound 0.0316 µM) was 99.2% and 99% and 94.1%, the viability, T/C (compound 0.1 µM) was 122% and 97.6% and 103% and the viability, T/C (compound 0.316 µM) was 110% and 102% (2×). For the same molecule, the viability, T/C (compound 1 µM) was 100% and 106% and 101%, the viability, T/C (compound 3.16 µM) was 106% and 89.5% and 115% and the viability, T/C (compound 10 µM) was 94% and 64.3% and 58.6%. The IC50 (curve of compound) was > 10 µM.
Work on COc1ccc([C@@H](O)c2cc(-c3ncnc4cc(N5CCOCC5)ccc34)c(F)cc2Cl)nn1 + Cc1ccccc1N=Nc1ccc(NC(=O)c2ccnn2C)c(C)c1 yielded an IC50 [1] of 4.78 µM, an IC50 [2] of 4.07 µM and an IC50 [3] of 5.29 µM. For the same molecule, the IC50 [4] was 5.32 µM, the IC50 [5] was 4.79 µM and the viability, T/C [26] was 93.5%. The viability, T/C [27] was 108%, the viability, T/C [28] was 90% and the viability, T/C [29] was 81.4%. It also gave a viability, T/C [30] of 61.7%, a viability, T/C [31] of 30.5% and a viability, T/C [32] of 83.7%. It also gave a viability, T/C [33] of 91.8%, a viability, T/C [34] of 97.5% and a viability, T/C [35] of 80%. For the same molecule, the viability, T/C [36] was 55.6%, the viability, T/C [37] was 32.3% and the viability, T/C [38] was 96.8%. For the same molecule, the viability, T/C [39] was 91.8%, the viability, T/C [40] was 87.2% and the viability, T/C [41] was 79.5%. For the same molecule, the viability, T/C [42] was 61.1%, the viability, T/C [43] was 35.6% and the viability, T/C [44] was 93.8%. For the same molecule, the viability, T/C [45] was 98.4%, the viability, T/C [46] was 90% and the viability, T/C [47] was 86.5%. The viability, T/C [48] was 61.9%, the viability, T/C [49] was 35.3% and the viability, T/C [50] was 107%. It also gave a viability, T/C [51] of 111%, a viability, T/C [52] of 110% and a viability, T/C [53] of 94.5%. For the same molecule, the viability, T/C [54] was 61% and the viability, T/C [55] was 31.1%.
CCc1c2c(nc3ccc(O)cc13)-c1cc3c(c(=O)n1C2)COC(=O)[C@]3(O)CC + Cc1cncc(-c2nc(NCCc3c[nH]c4ccccc34)c3ncn(C(C)C)c3n2)c1 was tested, and the IC50 [1] was 0.0389 µM, the IC50 [2] was 0.0333 µM and the IC50 [3] was 0.0696 µM. The IC50 [4] was 0.0123 µM, the IC50 [5] was < 0.000949 µM and the viability, T/C (second compound 0.1 µM, first compound 0.000949 µM) was 96.7%. It also gave a viability, T/C (second compound 0.1 µM, first compound 0.003 µM) of 91.2%, a viability, T/C [6] of 60.3% and a viability, T/C [7] of 56.5%. It also gave a viability, T/C [8] of 41%, a viability, T/C [9] of 29% and a viability, T/C (second compound 0.316 µM, first compound 0.000949 µM) of 92.4%. The viability, T/C (second compound 0.316 µM, first compound 0.003 µM) was 84.3%, the viability, T/C [10] was 61.3% and the viability, T/C [11] was 54.4%. For the same molecule, the viability, T/C [12] was 37.6%, the viability, T/C [13] was 28.7% and the viability, T/C (second compound 1 µM, first compound 0.000949 µM) was 102%. It also gave a viability, T/C (second compound 1 µM, first compound 0.003 µM) of 94.2%, a viability, T/C [14] of 70% and a viability, T/C [15] of 58.8%. It also gave a viability, T/C [16] of 50.9%, a viability, T/C [17] of 30.2% and a viability, T/C (second compound 3.16 µM, first compound 0.000949 µM) of 74.8%. For the same molecule, the viability, T/C (second compound 3.16 µM, first compound 0.003 µM) was 66%, the viability, T/C [18] was 49% and the viability, T/C [19] was 43.3%. The viability, T/C [20] was 32.2%, the viability, T/C [21] was 23.2% and the viability, T/C (second compound 10 µM, first compound 0.000949 µM) was 10.7%. The viability, T/C (second compound 10 µM, first compound 0.003 µM) was 11.6%, the viability, T/C [22] was 12.5% and the viability, T/C [23] was 11.7%. It also gave a viability, T/C [24] of 9.62% and a viability, T/C [25] of 11%.
For COc1ccc([C@@H](O)c2cc(-c3ncnc4cc(N5CCOCC5)ccc34)c(F)cc2Cl)nn1, the viability, T/C (compound 0.0316 µM) was 94.1% and 90.8% and 102%, the viability, T/C (compound 0.1 µM) was 93.3% and 98.1% and 115% and the viability, T/C (compound 0.316 µM) was 93.6% and 91.3% and 90.6%. For the same molecule, the viability, T/C (compound 1 µM) was 79.1% and 78.4% and 71.7%, the viability, T/C (compound 3.16 µM) was 60.8% and 57.4% and 59.3% and the viability, T/C (compound 10 µM) was 33.6% and 28.5% and 30.6%. The IC50 (curve of compound) was 4.91 µM and 4.15 µM and 3.98 µM.
